Experiment: mn = molality of the nth substance listed, in mol/kg
Conditions: Liquid, Vibrating tube method

[Ca+2].[Cl-].[Cl-] [calcium chloride] + O
mass density [kg/m3]
Conditions | 283.15 K | 298.12 K | 323.07 K | 348.04 K | 372.99 K | 397.97 K | 422.94 K | 447.94 K | 472.96 K
1050 kPa, m1 = 1 | 1087.02 | 1082.37 | 1072.02 | 1058.99 | 1043.73 | 1026.22 | 1006.8 | 985.31 | –
1050 kPa, m1 = 3 | – | 1225.07 | 1212.47 | 1198.77 | 1184.12 | 1167.99 | 1150.79 | 1132.22 | –
1050 kPa, m1 = 6 | – | 1388 | 1372.06 | 1356.18 | 1340.35 | 1324.03 | 1307.39 | 1290.23 | –
10020 kPa, m1 = 1 | 1090.65 | 1085.93 | 1075.48 | 1062.51 | 1047.42 | 1030.11 | 1011.09 | 989.96 | 966.77
10020 kPa, m1 = 3 | – | 1228.17 | 1215.47 | 1201.83 | 1187.2 | 1171.26 | 1154.33 | 1135.97 | 1116.32
10020 kPa, m1 = 6 | – | 1390.67 | 1374.67 | 1358.9 | 1343.09 | 1326.81 | 1310.4 | 1293.23 | 1275.65
19970 kPa, m1 = 1 | 1094.63 | 1089.7 | 1079.27 | 1066.31 | 1051.39 | 1034.38 | 1015.62 | 995.04 | 972.43
19970 kPa, m1 = 3 | – | 1231.3 | 1218.73 | 1205.15 | 1190.58 | 1174.82 | 1158.03 | 1139.99 | 1120.67
19970 kPa, m1 = 6 | – | 1393.43 | 1377.58 | 1361.82 | 1346.07 | 1329.91 | 1313.54 | 1296.61 | 1279.19
29900 kPa, m1 = 1 | 1098.56 | 1093.48 | 1082.99 | 1070.05 | 1055.27 | 1038.38 | 1020 | 999.9 | 977.79
29900 kPa, m1 = 3 | – | 1234.6 | 1221.98 | 1208.41 | 1193.94 | 1178.23 | 1161.68 | 1143.88 | 1124.82
29900 kPa, m1 = 6 | – | 1396.28 | 1380.48 | 1364.67 | 1349.03 | 1332.86 | 1316.63 | 1299.83 | 1282.53
39830 kPa, m1 = 1 | 1102.39 | 1097.27 | 1086.62 | 1073.75 | 1059.05 | 1042.42 | 1024.3 | 1004.57 | 983.04
39830 kPa, m1 = 3 | – | 1237.81 | 1225.08 | 1211.58 | 1197.14 | 1181.65 | 1165.21 | 1147.62 | 1129.01
39830 kPa, m1 = 6 | – | 1399.14 | 1383.27 | 1367.55 | 1351.92 | 1335.87 | 1319.7 | 1303.02 | 1285.96
49760 kPa, m1 = 1 | 1106.11 | 1100.95 | 1090.1 | 1077.29 | 1062.77 | 1046.36 | 1028.53 | 1009.07 | 988.08
49760 kPa, m1 = 3 | – | 1240.96 | 1228.11 | 1214.64 | 1200.38 | 1184.96 | 1168.72 | 1151.3 | 1132.99
49760 kPa, m1 = 6 | – | 1401.93 | 1385.94 | 1370.29 | 1354.76 | 1338.78 | 1322.71 | 1306.09 | 1289.19
59680 kPa, m1 = 1 | 1109.84 | 1104.52 | 1093.62 | 1080.87 | 1066.34 | 1050.19 | 1032.62 | 1013.53 | 992.91
59680 kPa, m1 = 3 | – | 1244 | 1231.21 | 1217.8 | 1203.46 | 1188.2 | 1172.12 | 1154.99 | 1136.86
59680 kPa, m1 = 6 | – | 1404.61 | 1388.68 | 1373.09 | 1357.57 | 1341.67 | 1325.64 | 1309.22 | 1292.45
68120 kPa, m1 = 1 | 1113.04 | 1107.46 | 1096.56 | 1083.78 | 1069.39 | 1053.29 | 1036 | 1017.15 | 996.86
68120 kPa, m1 = 3 | – | 1246.57 | 1233.72 | 1220.39 | 1206.1 | 1190.88 | 1174.94 | 1157.94 | 1140.04
68120 kPa, m1 = 6 | – | 1406.89 | 1390.9 | 1375.4 | 1359.88 | 1344 | 1328.12 | 1311.73 | 1295.04
